Assay results reported in ChEMBL document CHEMBL5696442, “Discovery of type II inhibitors of TGFβ-activated kinase 1 (TAK1) and mitogen-activated protein kinase kinase kinase kinase 2 (MAP4K2)” (J Med Chem, 2015).
Active and inactive are the calls of the source. The calls are words filed in the database; no cut-off is given here.

Assays:
[1] = biological target: Cyclin-dependent kinase 5 (Homo sapiens) (UniProt Q00535); experiment: Inhibition of CDK5 Lys2 labeling site harbouring NVLHRDLKPQNLLINR in human Huh-7 cell lysate at 1 uM by KiNativ Profiling analysis relative to control; format: subcellular
[2] = biological target: T1, Mitogen-activated protein kinase kinase kinase kinase 2 (Homo sapiens) (UniProt Q12851); experiment: Inhibition of MAP4K2 (GCK) Lys1 labeling site in human Huh-7 cells at 1 uM by KiNativ Profiling analysis relative to control; format: cell-based
T1 sequence (whole entry): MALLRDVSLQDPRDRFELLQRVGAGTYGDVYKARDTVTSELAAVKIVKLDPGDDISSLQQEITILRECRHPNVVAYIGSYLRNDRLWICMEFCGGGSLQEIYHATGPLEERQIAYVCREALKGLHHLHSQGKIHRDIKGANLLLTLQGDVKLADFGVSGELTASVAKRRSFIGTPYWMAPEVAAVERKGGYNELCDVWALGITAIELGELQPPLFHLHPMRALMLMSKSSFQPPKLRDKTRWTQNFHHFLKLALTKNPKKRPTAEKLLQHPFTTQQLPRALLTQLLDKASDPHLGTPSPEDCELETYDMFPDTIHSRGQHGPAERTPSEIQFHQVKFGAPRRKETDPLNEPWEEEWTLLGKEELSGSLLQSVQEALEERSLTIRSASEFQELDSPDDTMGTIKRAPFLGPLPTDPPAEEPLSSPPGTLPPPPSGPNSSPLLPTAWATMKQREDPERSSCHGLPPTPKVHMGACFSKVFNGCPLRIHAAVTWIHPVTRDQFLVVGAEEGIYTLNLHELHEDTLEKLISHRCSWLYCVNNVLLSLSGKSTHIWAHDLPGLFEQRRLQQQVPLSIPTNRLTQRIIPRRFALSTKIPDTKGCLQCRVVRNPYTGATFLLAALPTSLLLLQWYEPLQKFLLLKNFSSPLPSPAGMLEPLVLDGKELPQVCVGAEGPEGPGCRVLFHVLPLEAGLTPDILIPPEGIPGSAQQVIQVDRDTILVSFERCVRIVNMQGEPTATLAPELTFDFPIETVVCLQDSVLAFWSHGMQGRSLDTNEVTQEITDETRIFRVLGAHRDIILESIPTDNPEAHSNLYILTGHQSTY

[3] = biological target: Phosphatidylinositol 4-kinase alpha (Homo sapiens) (UniProt P42356); experiment: Inhibition of PI4KA ATP labeling site in human Huh-7 cells at 1 uM by KiNativ Profiling analysis relative to control; format: cell-based
[4] = biological target: Serine/threonine-protein kinase WNK4 (Homo sapiens) (UniProt Q96J92); experiment: Inhibition of Wnk4 ACT labeling site in human Huh-7 cells at 1 uM by KiNativ Profiling analysis relative to control; format: cell-based
[5] = biological target: 5'-AMP-activated protein kinase catalytic subunit alpha-2 (Homo sapiens) (UniProt P54646); experiment: Inhibition of AMPK-alpha2 (unknown origin) at 10 uM by Ambit Kinomescan binding assay
[6] = biological target: Fibroblast growth factor receptor 3 (Homo sapiens) (UniProt P22607); experiment: Inhibition of FGFR3 (unknown origin) at 10 uM by Ambit Kinomescan binding assay relative to control
[7] = biological target: Tyrosine-protein kinase JAK1 (Homo sapiens) (UniProt P23458); experiment: Inhibition of JAK1 JH1 catalytic domain (unknown origin) at 10 uM by Ambit Kinomescan binding assay relative to control
[8] = biological target: TRAF2 and NCK-interacting protein kinase (Homo sapiens) (UniProt Q9UKE5); experiment: Inhibition of ZC2/TNIK K2 labeling site in human Huh-7 cells at 10 uM by KiNativ Profiling analysis relative to control; format: cell-based
[9] = biological target: 5'-AMP-activated protein kinase catalytic subunit alpha-1 (Homo sapiens) (UniProt Q13131); experiment: Inhibition of AMPKa1 ATP labeling site in human Huh-7 cells at 10 uM by KiNativ Profiling analysis relative to control; format: cell-based
[10] = biological target: Cyclin-dependent kinase 13 (Homo sapiens) (UniProt Q14004); experiment: Inhibition of CHED K2 labeling site in human Huh-7 cells at 10 uM by KiNativ Profiling analysis relative to control; format: cell-based
[11] = biological target: Ribosomal protein S6 kinase alpha-4 (Homo sapiens) (UniProt O75676); experiment: Inhibition of C-terminal RPS6KA4 kinase domain 2 (unknown origin) at 1 uM by Ambit Kinomescan binding assay relative to control
[12] = biological target: T2, Serine/threonine-protein kinase tousled-like 1 (Homo sapiens) (UniProt Q9UKI8); experiment: Inhibition of TLK1 (unknown origin) at 1 uM by Ambit Kinomescan binding assay relative to control
T2 sequence (whole entry): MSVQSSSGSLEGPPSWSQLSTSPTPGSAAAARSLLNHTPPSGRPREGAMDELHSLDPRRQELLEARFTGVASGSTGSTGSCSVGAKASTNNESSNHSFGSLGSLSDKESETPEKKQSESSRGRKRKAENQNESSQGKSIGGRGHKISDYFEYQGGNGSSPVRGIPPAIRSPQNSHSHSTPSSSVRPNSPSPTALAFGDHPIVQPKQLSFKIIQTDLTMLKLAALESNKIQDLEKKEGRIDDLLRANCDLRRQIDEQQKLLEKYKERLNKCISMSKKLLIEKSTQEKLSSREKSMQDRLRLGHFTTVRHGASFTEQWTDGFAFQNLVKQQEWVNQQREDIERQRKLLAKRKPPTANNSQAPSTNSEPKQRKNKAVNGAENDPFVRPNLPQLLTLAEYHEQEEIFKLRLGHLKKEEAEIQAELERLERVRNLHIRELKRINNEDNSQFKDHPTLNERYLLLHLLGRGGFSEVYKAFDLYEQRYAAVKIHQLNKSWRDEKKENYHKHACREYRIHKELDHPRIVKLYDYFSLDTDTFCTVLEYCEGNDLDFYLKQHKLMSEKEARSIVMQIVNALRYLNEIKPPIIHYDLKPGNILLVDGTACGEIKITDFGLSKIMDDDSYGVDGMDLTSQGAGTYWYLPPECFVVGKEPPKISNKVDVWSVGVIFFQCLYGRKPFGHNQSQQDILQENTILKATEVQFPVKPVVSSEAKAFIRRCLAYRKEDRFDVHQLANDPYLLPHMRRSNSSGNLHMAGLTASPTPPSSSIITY

[13] = biological target: Serine/threonine-protein kinase ULK2 (Homo sapiens) (UniProt Q8IYT8); experiment: Inhibition of ULK2 (unknown origin) at 1 uM by Ambit Kinomescan binding assay relative to control
[14] = biological target: Serine/threonine-protein kinase 4 (Homo sapiens) (UniProt Q13043); experiment: Inhibition of MST1 Lys2 labeling site harbouring DIKAGNILLNTEGHAK in human A-375 cells at 0.05 uM by KiNativ Profiling analysis relative to control
[15] = test system: Tyrosine-protein kinase ABL1 (Homo sapiens), P00519 [Y253F]; experiment: Inhibition of phosphorylated ABL1 Y253F mutant (unknown origin) at 1 uM by Ambit Kinomescan binding assay relative to control; values are per cent of control

Serine/threonine-protein kinase WNK4 (Homo sapiens), sequence (Q96J92 whole entry): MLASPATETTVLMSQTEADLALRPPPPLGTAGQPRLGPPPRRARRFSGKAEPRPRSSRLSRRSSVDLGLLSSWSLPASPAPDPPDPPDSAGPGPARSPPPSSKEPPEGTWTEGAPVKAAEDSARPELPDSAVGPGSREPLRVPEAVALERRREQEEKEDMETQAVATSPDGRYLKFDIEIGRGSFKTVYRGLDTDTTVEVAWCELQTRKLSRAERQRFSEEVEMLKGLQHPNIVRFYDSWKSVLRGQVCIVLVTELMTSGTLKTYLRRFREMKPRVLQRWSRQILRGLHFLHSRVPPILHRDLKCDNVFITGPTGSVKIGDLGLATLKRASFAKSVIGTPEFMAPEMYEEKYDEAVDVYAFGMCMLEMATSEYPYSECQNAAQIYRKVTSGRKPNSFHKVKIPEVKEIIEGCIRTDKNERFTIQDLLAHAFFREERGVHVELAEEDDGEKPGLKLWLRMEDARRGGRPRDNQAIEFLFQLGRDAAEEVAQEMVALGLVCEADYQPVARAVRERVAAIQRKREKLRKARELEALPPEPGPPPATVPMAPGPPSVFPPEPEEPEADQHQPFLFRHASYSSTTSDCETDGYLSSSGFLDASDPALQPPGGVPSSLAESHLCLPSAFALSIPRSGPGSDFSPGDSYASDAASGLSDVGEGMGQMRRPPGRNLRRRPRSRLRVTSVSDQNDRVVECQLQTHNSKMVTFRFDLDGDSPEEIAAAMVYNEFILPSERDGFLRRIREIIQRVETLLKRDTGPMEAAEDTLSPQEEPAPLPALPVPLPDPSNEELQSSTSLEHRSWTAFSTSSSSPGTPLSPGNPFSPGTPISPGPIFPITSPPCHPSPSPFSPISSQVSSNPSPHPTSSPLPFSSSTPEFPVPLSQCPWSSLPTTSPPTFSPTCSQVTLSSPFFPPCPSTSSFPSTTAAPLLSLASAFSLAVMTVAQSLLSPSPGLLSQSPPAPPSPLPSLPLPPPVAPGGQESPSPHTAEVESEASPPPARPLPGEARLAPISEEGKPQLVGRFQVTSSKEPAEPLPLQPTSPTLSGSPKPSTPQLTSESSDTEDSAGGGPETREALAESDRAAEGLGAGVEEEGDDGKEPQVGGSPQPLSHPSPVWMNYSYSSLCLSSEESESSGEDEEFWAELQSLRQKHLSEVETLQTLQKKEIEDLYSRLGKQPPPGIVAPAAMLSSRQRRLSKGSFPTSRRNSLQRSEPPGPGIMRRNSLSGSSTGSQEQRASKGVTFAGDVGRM
Serine/threonine-protein kinase 4 (Homo sapiens), sequence (Q13043 whole entry, looked up): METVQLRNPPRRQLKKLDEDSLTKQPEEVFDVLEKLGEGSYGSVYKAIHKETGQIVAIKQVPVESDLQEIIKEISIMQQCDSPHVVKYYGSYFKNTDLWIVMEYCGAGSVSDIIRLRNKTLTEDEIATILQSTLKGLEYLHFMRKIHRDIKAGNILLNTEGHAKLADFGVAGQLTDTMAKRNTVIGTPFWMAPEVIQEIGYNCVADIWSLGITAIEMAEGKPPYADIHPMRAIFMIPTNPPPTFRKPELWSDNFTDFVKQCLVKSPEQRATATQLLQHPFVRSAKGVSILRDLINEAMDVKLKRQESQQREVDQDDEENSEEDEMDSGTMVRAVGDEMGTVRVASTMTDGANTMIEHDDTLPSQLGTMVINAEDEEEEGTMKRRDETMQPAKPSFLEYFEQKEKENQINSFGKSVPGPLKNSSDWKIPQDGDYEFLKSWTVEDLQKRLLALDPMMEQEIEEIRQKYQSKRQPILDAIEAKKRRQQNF
TRAF2 and NCK-interacting protein kinase (Homo sapiens), sequence (Q9UKE5 whole entry, looked up): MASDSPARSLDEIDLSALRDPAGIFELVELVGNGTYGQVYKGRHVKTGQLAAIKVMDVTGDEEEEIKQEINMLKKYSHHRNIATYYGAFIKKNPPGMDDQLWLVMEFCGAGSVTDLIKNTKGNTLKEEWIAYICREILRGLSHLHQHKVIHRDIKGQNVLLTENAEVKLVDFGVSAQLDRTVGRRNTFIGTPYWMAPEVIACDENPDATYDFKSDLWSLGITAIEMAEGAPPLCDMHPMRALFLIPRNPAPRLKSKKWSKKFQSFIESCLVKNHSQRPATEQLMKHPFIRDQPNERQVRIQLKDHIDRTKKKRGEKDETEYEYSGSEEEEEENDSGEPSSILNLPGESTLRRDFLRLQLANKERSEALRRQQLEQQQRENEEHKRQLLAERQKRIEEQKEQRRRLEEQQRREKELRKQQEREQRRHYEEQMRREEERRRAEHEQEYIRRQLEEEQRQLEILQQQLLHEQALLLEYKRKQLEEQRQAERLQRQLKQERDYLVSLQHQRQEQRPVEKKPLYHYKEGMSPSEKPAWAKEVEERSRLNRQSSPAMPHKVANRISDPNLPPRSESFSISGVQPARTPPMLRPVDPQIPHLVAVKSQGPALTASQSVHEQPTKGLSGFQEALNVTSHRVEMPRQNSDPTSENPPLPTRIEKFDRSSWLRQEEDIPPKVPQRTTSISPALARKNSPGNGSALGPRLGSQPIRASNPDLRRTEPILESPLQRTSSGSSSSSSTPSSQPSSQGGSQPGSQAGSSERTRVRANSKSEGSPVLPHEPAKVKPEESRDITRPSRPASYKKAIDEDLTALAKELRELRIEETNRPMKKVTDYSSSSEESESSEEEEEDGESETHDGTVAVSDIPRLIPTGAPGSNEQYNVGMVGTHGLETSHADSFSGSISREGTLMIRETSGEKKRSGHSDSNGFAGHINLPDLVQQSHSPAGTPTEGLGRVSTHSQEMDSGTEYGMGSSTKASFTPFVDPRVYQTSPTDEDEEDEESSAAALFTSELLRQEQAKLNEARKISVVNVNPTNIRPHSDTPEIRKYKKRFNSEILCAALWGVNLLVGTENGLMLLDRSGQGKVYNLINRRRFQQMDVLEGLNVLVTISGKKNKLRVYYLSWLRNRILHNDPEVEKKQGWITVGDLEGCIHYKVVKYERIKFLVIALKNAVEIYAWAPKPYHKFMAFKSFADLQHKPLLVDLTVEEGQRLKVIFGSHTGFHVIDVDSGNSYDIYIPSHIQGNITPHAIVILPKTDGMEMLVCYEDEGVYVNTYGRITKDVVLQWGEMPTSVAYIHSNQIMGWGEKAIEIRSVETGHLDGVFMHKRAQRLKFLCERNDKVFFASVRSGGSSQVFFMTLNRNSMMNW
Cyclin-dependent kinase 13 (Homo sapiens), sequence (Q14004 whole entry, looked up, the tested form may be a part): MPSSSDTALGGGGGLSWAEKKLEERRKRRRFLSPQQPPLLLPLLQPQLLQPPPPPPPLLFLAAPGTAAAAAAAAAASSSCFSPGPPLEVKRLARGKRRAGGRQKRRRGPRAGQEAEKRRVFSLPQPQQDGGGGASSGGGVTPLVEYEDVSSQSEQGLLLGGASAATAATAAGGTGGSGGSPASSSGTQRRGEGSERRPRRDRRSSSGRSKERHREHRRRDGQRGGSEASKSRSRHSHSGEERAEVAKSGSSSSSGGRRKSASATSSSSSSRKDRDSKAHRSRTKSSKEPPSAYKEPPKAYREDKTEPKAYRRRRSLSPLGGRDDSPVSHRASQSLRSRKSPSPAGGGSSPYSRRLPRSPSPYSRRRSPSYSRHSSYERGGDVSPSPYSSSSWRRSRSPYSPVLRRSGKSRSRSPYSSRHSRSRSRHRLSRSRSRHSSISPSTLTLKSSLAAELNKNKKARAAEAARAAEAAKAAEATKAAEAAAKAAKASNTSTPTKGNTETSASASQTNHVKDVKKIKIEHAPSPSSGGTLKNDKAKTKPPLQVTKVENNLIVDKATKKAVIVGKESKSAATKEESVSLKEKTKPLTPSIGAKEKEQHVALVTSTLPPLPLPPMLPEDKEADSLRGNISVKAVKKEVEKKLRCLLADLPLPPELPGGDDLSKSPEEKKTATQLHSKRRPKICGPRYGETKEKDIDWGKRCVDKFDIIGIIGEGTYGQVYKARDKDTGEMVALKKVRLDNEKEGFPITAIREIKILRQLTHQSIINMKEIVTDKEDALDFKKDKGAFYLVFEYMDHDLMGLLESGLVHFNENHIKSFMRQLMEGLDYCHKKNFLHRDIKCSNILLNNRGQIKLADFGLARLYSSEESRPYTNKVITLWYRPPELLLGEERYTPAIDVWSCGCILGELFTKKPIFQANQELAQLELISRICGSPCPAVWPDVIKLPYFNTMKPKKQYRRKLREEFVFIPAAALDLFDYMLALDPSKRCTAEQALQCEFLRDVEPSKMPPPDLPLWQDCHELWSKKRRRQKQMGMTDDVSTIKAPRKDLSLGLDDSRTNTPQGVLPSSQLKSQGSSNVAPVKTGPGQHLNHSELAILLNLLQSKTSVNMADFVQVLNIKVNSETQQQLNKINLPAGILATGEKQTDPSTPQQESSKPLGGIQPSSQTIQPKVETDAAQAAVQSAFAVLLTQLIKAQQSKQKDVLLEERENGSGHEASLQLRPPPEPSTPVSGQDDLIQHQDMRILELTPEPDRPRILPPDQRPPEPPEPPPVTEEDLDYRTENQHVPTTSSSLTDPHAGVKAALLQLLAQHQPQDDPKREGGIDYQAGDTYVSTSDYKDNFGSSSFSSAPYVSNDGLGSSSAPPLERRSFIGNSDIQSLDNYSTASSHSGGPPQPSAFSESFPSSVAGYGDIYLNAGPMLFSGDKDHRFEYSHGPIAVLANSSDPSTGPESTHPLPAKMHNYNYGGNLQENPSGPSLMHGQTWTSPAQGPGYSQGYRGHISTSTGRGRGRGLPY
Cyclin-dependent kinase 5 (Homo sapiens), sequence (Q00535 whole entry, looked up): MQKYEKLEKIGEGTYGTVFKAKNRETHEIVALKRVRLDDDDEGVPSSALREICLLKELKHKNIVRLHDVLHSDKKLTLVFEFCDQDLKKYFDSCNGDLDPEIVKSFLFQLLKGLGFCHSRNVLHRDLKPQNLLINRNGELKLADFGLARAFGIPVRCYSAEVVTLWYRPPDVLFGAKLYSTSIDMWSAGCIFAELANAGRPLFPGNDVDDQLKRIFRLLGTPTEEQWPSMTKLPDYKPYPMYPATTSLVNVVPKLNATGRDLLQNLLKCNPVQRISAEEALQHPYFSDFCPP

Compound CNc1cc(Oc2cc(C(=O)Nc3cc(N4CCN(C)CC4)cc(C(F)(F)F)c3)ccc2C)ncn1 has an inhibition [1] of 22.5%, an inhibition [2] of 88.3% and an inhibition [3] of 29.8%. The inhibition [4] was 21.6%.
CCN1CCN(Cc2ccc(NC(=O)c3ccc(C)c(Oc4ccnc5[nH]ccc45)c3)cc2C(F)(F)F)CC1 was tested, and the inhibition [5] was “inactive”, the inhibition [6] was 9.4% and the inhibition [7] was 11%. For the same compound, the inhibition [8] was 72.6%, the inhibition [9] was 14% and the inhibition [10] was “inactive”.
With CCN1CCN(Cc2ccc(NC(=O)c3ccc(C)c(/C=C/c4cnc5[nH]ccc5c4OC)c3)cc2C(F)(F)F)CC1 the inhibition [11] was 73%, the inhibition [12] was 79% and the inhibition [13] was 81%. For the same compound, the inhibition [14] was -7% and the percent of control [15] was 0.75%.
